Test [1] concerns the target T1, recombinant human dopamine D2L receptors (Homo sapiens, UniProt P14416).
T1 construct: expressed in transfected cells; host or cells: HEK-293 (HEK-D2L), membrane homogenates
Put plainly: Dopamine Binding Assay. The conditions noted are these: HEK-D2L cell membranes, 150 pM [3H]-spiperone, Cheng and Prusoff. As for the experimental part: HEK-293 cells that stably express recombinant human dopamine D2L receptors (HEK-D2L cells) were grown at 37° C. in 5% CO2 as a monolayer in medium consisting of EMEM supplemented with 10% fetal bovine serum and G418 sulfate (500 μg/ml). To prepare membranes for radioligand binding experiments, cells were rinsed twice with phosphate-buffered saline (138 mM NaCl, 4.1 mM KCl, 5.1 mM Na2PO4, 1.5 mM KH2PO2 11.1 mM glucose, pH 7.4), and incubated for 5-10 min. at 4° C. in hypotonic lysis buffer consisting of 10 mM Tris (pH 7.4) and 5 mM EDTA. Cells were transferred from plates to polypropylene tubes (16×100 mm), homogenized and centrifuged at 32,000×g for 20 min. Following centrifugation, pellets were resuspended by homogenization in buffer consisting of 50 mM Tris (pH 7.7 at 25° C.) and 1 mM EDTA. Homogenates were stored at −80° C. until needed. On the day of an experiment, homogenates were thawed then centrifuged at 32,000×g for 20 min. Following centrifugation, supernatants were discarded and pellets were resuspended in assay buffer consisting of 50 mM Tris (pH 7.4 at 25° C.), 1 mM EDTA and 6 mM MgCl2. Membrane homogenates (˜5 μg) were incubated with 150 pM [^3H]-spiperone (Amersham Life Science) and increasing concentrations of test compounds for 1.5 hr at 22° C. in a total volume of 400 μl. Reactions were stopped by addition of ice-cold assay buffer and filtration over glass fiber filters (Whatman GFB, pre-soaked in 0.05% polyethylenimine) using a microtitre format Brandel cell harvester. Filters were washed with 3 ml of ice-cold assay buffer. Non-specific binding was defined with 2 μM (+)butaclamol. Ki values were calculated using the method of Cheng and Prusoff (1973). Protein concentrations were determined by the method of Bradford (1976) with BSA as a standard.

Test [2] deals with T2, human serotonin transporters (Homo sapiens, UniProt P31645).
T2 construct: expressed in transfected cells; host or cells: HEK-293 (HEK-hSERT), membrane homogenates
Put plainly: Serotonin Transporter Binding Assay. The conditions noted are these: HEK-hSERT cell membranes, 1 nM [3H]-citalopram, Cheng and Prusoff. As for the experimental part:
HEK-293 cells that stably express human serotonin transporters (HEK-hSERT cells) were grown at 37° C. in 5% CO2 as a monolayer in medium consisting of EMEM supplemented with 10% fetal bovine serum and G418 sulfate (500 μg/ml). To prepare membranes for radioligand binding experiments, cells were rinsed twice with phosphate-buffered saline (138 mM NaCl, 4.1 mM KCl, 5.1 mM Na2PO4, 1.5 mM […], 11.1 mM glucose, pH 7.4). Cells were transferred from plates to polypropylene tubes (16×100 mm), centrifuged at 1,200×g for 5 min and were frozen at −80° C. until assay. Following centrifugation, pellets were resuspended by homogenization in buffer consisting of 50 mM Tris (pH 7.7 at 25° C.), 120 mM NaCl and 5 mM KCl and then centrifuged at 32,000×g for 10 min. Following centrifugation, supernatants were discarded and pellets were resuspended in buffer consisting of 50 mM Tris (pH 7.4 at 25° C.), 150 mM NaCl and 5 mM KCl. Membrane homogenates (200 μl/plate) were incubated with 1 nM [^3H]-citalopram (specific activity=85 Ci/mmol) and increasing concentrations of test compounds for 1 hr at 25° C. in a total volume of 250 μl. The assay buffer consisted of 50 mM Tris (pH 7.4 at 25° C.), 120 mM NaCl and 5 mM KCl (pH 7.4 with conc. HCl). Plates were incubated for 1 hr at 25° C., then filtered through 0.5% PEI treated Whatman GF/B filters using a Brandel cell harvester. Filters were washed three times with 3 ml of ice-cold tris wash buffer. Non-specific binding was defined with 10 μM fluoxetine. Amount of radioligand bound in the presence and absence of competitor was analyzed by plotting (−)log drug concentration versus the amount of radioligand specifically bound. The midpoint of the displacement curve (IC50, nM), signifies the potency. Ki values were calculated using the method of Cheng and Prusoff (1973).

Structures can show the parent of a compound that is named as a salt. Where two headings read alike, the source gives them in different places.

T1 sequence (P14416 whole entry): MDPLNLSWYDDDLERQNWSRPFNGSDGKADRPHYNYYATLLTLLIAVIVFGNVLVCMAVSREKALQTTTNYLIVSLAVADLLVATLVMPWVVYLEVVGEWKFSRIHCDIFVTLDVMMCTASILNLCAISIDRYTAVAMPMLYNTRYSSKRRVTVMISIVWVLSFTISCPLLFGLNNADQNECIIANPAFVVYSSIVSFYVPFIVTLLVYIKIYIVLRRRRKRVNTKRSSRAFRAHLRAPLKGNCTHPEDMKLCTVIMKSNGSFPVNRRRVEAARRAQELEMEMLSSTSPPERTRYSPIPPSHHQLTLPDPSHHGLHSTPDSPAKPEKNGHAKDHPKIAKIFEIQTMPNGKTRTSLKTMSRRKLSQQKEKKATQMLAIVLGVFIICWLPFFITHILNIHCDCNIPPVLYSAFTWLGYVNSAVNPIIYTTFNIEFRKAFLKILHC
T2 sequence (P31645 whole entry): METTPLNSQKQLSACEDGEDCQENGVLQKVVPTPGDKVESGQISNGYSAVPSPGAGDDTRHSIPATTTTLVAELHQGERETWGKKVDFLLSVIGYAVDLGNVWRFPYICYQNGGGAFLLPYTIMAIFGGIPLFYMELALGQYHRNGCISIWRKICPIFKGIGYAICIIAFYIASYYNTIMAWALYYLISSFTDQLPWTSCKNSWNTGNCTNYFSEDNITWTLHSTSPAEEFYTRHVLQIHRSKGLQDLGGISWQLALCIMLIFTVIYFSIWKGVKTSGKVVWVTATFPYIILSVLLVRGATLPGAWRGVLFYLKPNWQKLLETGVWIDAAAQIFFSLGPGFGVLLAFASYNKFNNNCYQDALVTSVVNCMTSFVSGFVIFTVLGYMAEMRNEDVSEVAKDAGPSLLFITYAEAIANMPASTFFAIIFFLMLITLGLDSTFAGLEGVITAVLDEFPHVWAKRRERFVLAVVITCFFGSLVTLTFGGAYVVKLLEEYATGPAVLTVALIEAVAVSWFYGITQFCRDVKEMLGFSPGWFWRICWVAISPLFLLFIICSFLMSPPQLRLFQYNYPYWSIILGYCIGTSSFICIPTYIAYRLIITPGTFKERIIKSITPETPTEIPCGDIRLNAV

The term Ki denotes a measure of affinity in units of concentration, obtained from inhibition or displacement. Take `CCNCC1CC1c1c[nH]c2ccc(F)cc12` (stereo not drawn) [Example 136]: the Ki is more than 1000 nM in test [1] and 10 to 100 nM in test [2] (SERT Ki (nM)). `CCOC(=O)NCCCN(C)C[C@@H]1C[C@H]1c1c[nH]c2ccc(F)cc12` (relative stereo) [Example 105, trans-2-[5-Fluoroindol-3-yl]-1-[N,N-methyl-2-amino(ethylcarbamoyl)propylaminomethyl]-cyclopropane]: the Ki in test [1] was in the range of 100 to 1000 nM; in test [2] (read-out: SERT Ki), 10 to 100 nM. For the molecule `CNC[C@H]1C[C@@H]1c1c[nH]c2ccc(C#N)cc12` [Example 120, (1S,2S)-trans-2-[5-Cyanoindol-3-yl]-1-(N-methylaminomethyl)cyclopropane], the Ki lay within 100 to 1000 nM in test [1] and 1 to 10 nM in test [2] (read-out: SERT Ki). The corresponding values for `CCN(C)CC1CC1c1c[nH]c2ccc(F)cc12` (stereo not drawn) [Example 133] are 100 to 1000 nM and 10 to 100 nM. Turning to `CCN(CC)C(C)C1CC1c1c[nH]c2ccc(C#N)cc12` (racemic) [Example 123, trans-3-[2-(1-Diethylamino-ethyl)-cyclopropyl]-1H-indole-5-carbonitrile], the Ki in test [1] is more than 1000 nM; in test [2] (SERT Ki (nM)), 10 to 100 nM. With `CCOC(=O)NCCCN(C)C[C@@H]1C[C@H]1c1c[nH]c2ccc(C#N)cc12` (relative stereo) [Example 90, trans-2-[5-Cyanoindol-3-yl]-1-[N,N-methyl-2-amino(ethylcarbamoyl)propylaminomethyl]-cyclopropane], the values for the Ki in test [1] and in test [2] (read-out: SERT Ki) were 100 to 1000 nM and 1 to 10 nM, respectively. With `COc1ccccc1CNCC1CC1c1c[nH]c2ccc(F)cc12` (stereo not drawn) [Example 50, trans-2-[5-Fluoroindol-3-yl]-1-[N-(2-methoxybenzyl)aminomethyl]-cyclopropane], the values for the Ki in test [1] and in test [2] (read-out: SERT Ki) were 10 to 100 nM and 1 to 10 nM, respectively. Consider `Fc1ccc2[nH]cc(C3CC3CN3CCNCC3)c2c1` (stereo not drawn) [Example 74, trans-2-[5-Fluoroindol-3-yl]-1-(piperazin-1-yl-methyl)-cyclopropane], for which the Ki in test [1] was more than 1000 nM; in test [2] (SERT Ki (nM)), 1 to 10 nM. Take `CN(CCc1ccccc1)C[C@@H]1C[C@H]1c1c[nH]c2ccc(C#N)cc12` (relative stereo) [Example 39, trans-2-[5-Cyanoindol-3-yl]-1-[N,N-methyl-phenylethylaminomethyl]-cyclopropane]: the values for the Ki in test [1] and in test [2] (read-out: SERT Ki) were 10 to 100 nM and 1 to 10 nM, respectively. The matching figures for `CN(CCCC1CC1c1c[nH]c2ccc(C#N)cc12)Cc1ccccc1` (stereo not drawn) [Example 180, Trans-2-[5-cyanoindol-3-yl]-1-(3-(N-benzyl-N-methylamino)propyl)cyclopropane]: 100 to 1000 nM and 10 to 100 nM. As for `CCN(C)CC1CC1c1csc2ccccc12` (stereo not drawn) [Example 170, (2-Benzo[b]thiophen-3-yl-cyclopropylmethyl)-ethyl-methyl-amine], in test [2] (read-out: SERT Ki), the Ki was in the range of 100 to 1000 nM. In the case of `CN(C)CC1CC1c1csc2ccccc12` (single isomer, unassigned; (-)) [Example 190A, (−)-(2-Benzo[b]thiophen-3-yl-cyclopropylmethyl)-dimethyl-amine], the Ki in test [2] (read-out: SERT Ki) lay within 100 to 1000 nM. On the same count and under the same terms, for `CN(C)CC1CC1c1ccc2[nH]cc(Br)c2c1` (stereo not drawn) [Example 150, N,N-dimethyl-2-(3-bromoindol-5-yl)cycloprop-1-yl methylamine] the value was 10 to 100 nM.

Consider `CCNC[C@H]1C[C@@H]1c1c[nH]c2cc(C(F)(F)F)ccc12` (racemic) [Example 156, Ethyl-[2-(6-trifluoromethyl-1H-indol-3-yl)-cyclopropylmethyl]-amine], for which the Ki in test [2] (read-out: SERT Ki) was 100 to 1000 nM.

Turning to `CN(Cc1ccccc1)C[C@H]1C[C@@H]1c1c[nH]c2cc(C(F)(F)F)ccc12` (racemic) [Example 157, Benzyl-methyl-[2-(6-trifluoromethyl-1H-indol-3-yl)-cyclopropylmethyl]-amine], the Ki in test [2] (read-out: SERT Ki) fell in the range of 100 to 1000 nM.

On to `CN(C)CCC1CC1c1c[nH]c2ccc(C#N)cc12` (stereo not drawn) [Example 193, 3-[2-(2-Dimethylamino-ethyl)-cyclopropyl]-1H-indole-5-carbonitrile], for which, in test [2] (read-out: SERT Ki), the Ki fell in the range of 1 to 10 nM. The same measure, in the same setting: under `CN(C)CC1CC1c1ccc2c(C#N)c[nH]c2c1` (stereo not drawn) [Example 192, 6-(2-Dimethylaminomethyl-cyclopropyl)-1H-indole-3-carbonitrile] stands 1 to 10 nM; under `CCN(C)C[C@H]1C[C@@H]1c1c[nH]c2cc(C#N)ccc12` (racemic) [Example 161, 3-{2-[(Ethyl-methyl-amino)-methyl]-cyclopropyl}-1H-indole-6-carbonitrile], 100 to 1000 nM. As to `N#Cc1ccc2[nH]nc(C3CC3CN3CCCC3)c2c1` (stereo not drawn) [Example 166, 3-(2-Pyrrolidin-1-ylmethyl-cyclopropyl)-1H-indazole-5-carbonitrile], the Ki in test [2] (read-out: SERT Ki) was in the range of 100 to 1000 nM.

Regarding `CNCC1CC1c1csc2ccccc12` (stereo not drawn) [Example 168, (2-Benzo[b]thiophen-3-yl-cyclopropylmethyl)-methyl-amine], the inhibition constant Ki in test [2] (read-out: SERT Ki) was in the range of 10 to 100 nM. Still for that read-out and setting: for `CCN(CC)CC1CC1c1n[nH]c2ccc(C#N)cc12` (stereo not drawn) [Example 165, 3-(2-Diethylaminomethyl-cyclopropyl)-1H-indazole-5-carbonitrile] the value was 100 to 1000 nM. On to `CN(C)C[C@H]1C[C@@H]1c1cn(C)c2ccc(C#N)cc12` [Example 188], for which the Ki in test [2] (read-out: SERT Ki) is 1 to 10 nM. For `CNC[C@H]1C[C@@H]1c1c[nH]c2ccc(C(F)(F)F)cc12` (racemic) [Example 154, Methyl-[2-(5-trifluoromethyl-1H-indol-3-yl)-cyclopropylmethyl]-amine], the Ki in test [2] (read-out: SERT Ki) fell in the range of 10 to 100 nM. Turning to `c1ccc2c(C3CC3CN3CCCC3)csc2c1` (stereo not drawn) [Example 172, 1-(2-Benzo[b]thiophen-3-yl-cyclopropylmethyl)-pyrrolidine], the Ki in test [2] (read-out: SERT Ki) was in the range of 100 to 1000 nM. The same measure, in the same setting: for `CN(C)CC1CC1c1ccc2cc[nH]c2c1` (stereo not drawn) [Example 191, [2-(1H-Indol-6-yl)-cyclopropylmethyl]-dimethyl-amine] the value was 10 to 100 nM; for `CCNC[C@H]1C[C@@H]1c1c[nH]c2cc(C#N)ccc12` (racemic) [Example 159, 3-(2-Ethylaminomethyl-cyclopropyl)-1H-indole-6-carbonitrile], 100 to 1000 nM; for `CCN(CC)CCCC1CC1c1c[nH]c2ccc(C#N)cc12` (stereo not drawn) [Example 177, Trans-2-[5-cyanoindol-3-yl]1-(3-(N,N-diethylamino)propyl)cyclopropane], 10 to 100 nM. Same read-out and setting: for `CN(C)CC1CC1c1ccc2[nH]cc(C#N)c2c1` (stereo not drawn) [Example 151, 5-(2-Dimethylaminomethyl-cyclopropyl)-1H-indole-3-carbonitrile] the value was 1 to 10 nM; for `CCN(CC)CC1CC1c1csc2ccccc12` (stereo not drawn) [Example 171, (2-Benzo[b]thiophen-3-yl-cyclopropylmethyl)-diethyl-amine], 100 to 1000 nM; for `C[N+](C)(C)C[C@H]1C[C@@H]1c1c[nH]c2ccc(C#N)cc12` [Example 187, S,S-Trans-2-[5-Cyanoindol-3-yl]-1-(trimethylammoniummethyl)cyclopropane trifluoroacetate], less than 1 nM. `CCn1cc([C@H]2C[C@@H]2CN(C)C)c2cc(C#N)ccc21` [Example 189]: the Ki in test [2] (read-out: SERT Ki) was 1 to 10 nM. In the case of `CCN(C)CC1CC1c1n[nH]c2ccc(C#N)cc12` (stereo not drawn) [Example 164, 3-{2-[(Ethyl-methyl-amino)-methyl]-cyclopropyl}-1H-indazole-5-carbonitrile], in test [2] (read-out: SERT Ki), the Ki was in the range of 100 to 1000 nM.
